Results: patent US20120058997A1, “IMIDAZO[1,2-B]PYRIDAZINE AND PYRAZOLO[1,5-A]PYRIMIDINE DERIVATIVES AND THEIR USE AS PROTEIN KINASE INHIBITORS” (SuperGen, Inc., priority 2006, published 2012)
Like-named read-outs stand apart in the source and are kept apart here.

Columns and labels:
Pim-1 kinase = Pim-1 kinase (Homo sapiens, UniProt P11309); experiment: Promega Kinase-Glo Pim-1 kinase inhibition assay; type: biochemical; settings: Table VIII (results); values in nM; read-out: IC50(Kinase);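 further: in vitro Pim-1 reaction run 2 h at 30 °C, then leftover ATP measured by luciferase luminescence, where signal falls as kinase activity rises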
Chain of Pim-1 kinase (P11309 whole entry): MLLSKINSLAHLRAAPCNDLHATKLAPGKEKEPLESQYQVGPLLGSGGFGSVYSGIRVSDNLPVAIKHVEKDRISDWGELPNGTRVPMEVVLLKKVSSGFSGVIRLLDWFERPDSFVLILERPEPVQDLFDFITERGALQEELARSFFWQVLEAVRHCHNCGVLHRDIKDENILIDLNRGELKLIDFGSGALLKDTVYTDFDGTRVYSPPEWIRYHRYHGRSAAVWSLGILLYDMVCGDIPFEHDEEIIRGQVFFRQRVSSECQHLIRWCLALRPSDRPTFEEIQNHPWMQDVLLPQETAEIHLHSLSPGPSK

K562 Cells = experiment: Cell growth inhibition, Cell-Titer-Glo, 96 hours; type: cell-based; settings: Homo sapiens, read-out: IC50 (K562);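 further: luminescent ATP signal as an index of viable cell number, drug-treated versus cells given an equal volume of DMSO vehicle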
[1] = test system: phospho-Bad (S112) in MV-4-11 cells; experiment: phospho-Bad (S112) Western blot in MV-4-11 cells; type: cell-based; settings: Homo sapiens, MV4-11, 1 hr treatment, HCl salts, read-out: EC50 on phosphorylation of Bad (S112)
Text: One illustrative manner to determine the effect of Pim-1 inhibitors on the activity of the Pim-1 kinase is to measure the phosphorylation levels of the protein Bad at serine residue 112 (S112) (phospho-Bad or pBad). Pim-1 is known to cause the phosphorylation of Bad at S112 in order to inactivate the protein and inhibit its association with anti-apoptotic Bcl-2 family members, thereby allowing these Bcl-2 family members to further inhibit apoptotic signals.
Briefly, MV-4-11 (biphenotypic B myelomonocytic leukemia) cells were plated into T25 flasks in serum free media (SFM) at 1.5×10^5 cells/ml and allowed to grow for 24 hrs. After 24 hrs Pim-1 inhibitors at 10, 5, 1, 0.5, 0.1, or 0.01 μM concentrations were added to individual flasks. Treatment with the Pim-1 inhibitors continued for a duration of 1 hr. Cells were harvested after the 1 hr treatment and cell lysates were made from each sample. Equal amounts of total protein from the lysates were loaded onto a 10% Tris-glycine gel (Invitrogen) for SDS-PAGE analysis. […] In order to calculate the EC50 of inhibitors on phosphorylation of Bad (S112), the levels of total Bad protein were determined. […] Densitometry was used to quantitate the levels of each band on the Western blots and used to determine the EC50 of the Pim-1 inhibitors to alter the phospho-Bad protein levels.

PC-3 Cells = experiment: Cell growth inhibition, Cell-Titer-Glo, 96 hours; type: cell-based; settings: Homo sapiens, Table IX (results), read-out: IC50 (PC-3);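 further: luciferase luminescence reflecting cellular ATP, used as a proxy for cell number, with compound-treated cells compared against DMSO vehicle control wells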
Aurora-A = biological target: T1, Aurora-A (Homo sapiens, UniProt O14965); experiment: Radiometric kinase panel selectivity assay; type: biochemical; design: dose or concentration left out as unconfirmed
T1 sequence (O14965 1-403): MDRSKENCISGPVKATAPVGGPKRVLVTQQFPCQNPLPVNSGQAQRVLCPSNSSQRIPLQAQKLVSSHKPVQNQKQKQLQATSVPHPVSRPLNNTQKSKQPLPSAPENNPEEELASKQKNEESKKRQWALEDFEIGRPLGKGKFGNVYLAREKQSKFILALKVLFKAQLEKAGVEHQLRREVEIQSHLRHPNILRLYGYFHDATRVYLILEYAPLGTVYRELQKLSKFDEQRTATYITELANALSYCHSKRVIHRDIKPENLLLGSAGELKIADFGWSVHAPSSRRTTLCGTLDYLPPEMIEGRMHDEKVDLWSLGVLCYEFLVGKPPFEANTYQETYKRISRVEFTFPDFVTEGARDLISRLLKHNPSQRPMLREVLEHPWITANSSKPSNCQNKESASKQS

CDK1 = CDK1 (Homo sapiens, UniProt P06493); experiment: Radiometric kinase panel selectivity assay; type: biochemical; design: dose or concentration left out as unconfirmed
Chain of CDK1 (P06493 whole entry, species assumed): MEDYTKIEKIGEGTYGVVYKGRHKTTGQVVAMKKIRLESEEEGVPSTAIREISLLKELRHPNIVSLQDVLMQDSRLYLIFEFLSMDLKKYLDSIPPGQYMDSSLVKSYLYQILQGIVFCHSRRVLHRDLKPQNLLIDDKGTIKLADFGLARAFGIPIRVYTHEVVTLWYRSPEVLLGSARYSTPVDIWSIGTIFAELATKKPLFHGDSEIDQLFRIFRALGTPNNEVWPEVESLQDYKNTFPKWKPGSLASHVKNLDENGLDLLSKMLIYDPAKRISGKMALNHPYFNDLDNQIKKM
Chain of CDK1 (P14635 whole entry partner, species assumed): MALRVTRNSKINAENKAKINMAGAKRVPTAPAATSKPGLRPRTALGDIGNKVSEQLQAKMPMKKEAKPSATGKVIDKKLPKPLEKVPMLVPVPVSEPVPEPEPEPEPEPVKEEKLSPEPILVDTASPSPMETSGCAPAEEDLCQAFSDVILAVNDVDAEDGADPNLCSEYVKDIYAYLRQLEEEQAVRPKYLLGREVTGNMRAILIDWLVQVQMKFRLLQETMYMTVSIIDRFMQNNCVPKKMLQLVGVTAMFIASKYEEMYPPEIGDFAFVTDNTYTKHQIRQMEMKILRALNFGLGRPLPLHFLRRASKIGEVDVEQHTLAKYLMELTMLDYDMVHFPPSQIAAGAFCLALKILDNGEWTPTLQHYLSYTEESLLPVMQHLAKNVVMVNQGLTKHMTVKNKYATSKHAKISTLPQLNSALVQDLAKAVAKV

CDK2 = CDK2 (Homo sapiens, UniProt P24941); experiment: Radiometric kinase panel selectivity assay; type: biochemical; design: dose or concentration left out as unconfirmed
Plk3 = Plk3 (Homo sapiens, UniProt Q9H4B4); experiment: Radiometric kinase panel selectivity assay; type: biochemical; design: dose or concentration left out as unconfirmed
Chain of Plk3 (Q9H4B4 whole entry, species assumed): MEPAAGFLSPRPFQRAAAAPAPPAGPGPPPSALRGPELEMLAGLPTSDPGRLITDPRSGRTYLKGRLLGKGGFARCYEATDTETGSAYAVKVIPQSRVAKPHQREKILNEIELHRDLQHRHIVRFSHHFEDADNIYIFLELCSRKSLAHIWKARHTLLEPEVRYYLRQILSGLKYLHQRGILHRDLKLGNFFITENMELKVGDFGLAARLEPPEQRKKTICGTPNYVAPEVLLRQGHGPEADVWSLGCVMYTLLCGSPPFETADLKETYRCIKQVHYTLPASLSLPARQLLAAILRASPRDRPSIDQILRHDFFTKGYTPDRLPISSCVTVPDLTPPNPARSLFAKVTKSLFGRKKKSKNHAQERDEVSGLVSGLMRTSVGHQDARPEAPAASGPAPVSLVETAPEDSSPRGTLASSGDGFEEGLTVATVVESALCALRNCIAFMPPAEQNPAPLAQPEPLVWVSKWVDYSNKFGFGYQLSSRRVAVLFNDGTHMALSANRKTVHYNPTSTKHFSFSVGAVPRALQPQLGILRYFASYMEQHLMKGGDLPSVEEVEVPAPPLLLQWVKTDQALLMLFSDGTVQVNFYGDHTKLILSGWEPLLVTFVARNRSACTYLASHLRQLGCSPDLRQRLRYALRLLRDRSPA

Nek2 = biological target: T2, Nek2 (Homo sapiens, UniProt P51955); experiment: Radiometric kinase panel selectivity assay; type: biochemical; design: dose or concentration left out as unconfirmed
T2 sequence (P51955 1-445): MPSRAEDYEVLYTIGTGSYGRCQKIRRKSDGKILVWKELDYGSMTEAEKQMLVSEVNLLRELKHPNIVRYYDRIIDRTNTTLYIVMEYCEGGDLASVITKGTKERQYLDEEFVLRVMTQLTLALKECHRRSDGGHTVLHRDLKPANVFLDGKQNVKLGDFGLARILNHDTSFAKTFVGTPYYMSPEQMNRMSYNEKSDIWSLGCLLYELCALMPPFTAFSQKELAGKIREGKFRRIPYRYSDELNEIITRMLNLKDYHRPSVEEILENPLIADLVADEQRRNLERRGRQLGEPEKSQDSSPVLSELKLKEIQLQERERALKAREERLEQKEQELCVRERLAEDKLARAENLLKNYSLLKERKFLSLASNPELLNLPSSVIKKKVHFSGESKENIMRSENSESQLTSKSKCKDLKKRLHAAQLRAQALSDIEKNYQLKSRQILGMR

Able = Able (Homo sapiens, UniProt P00519); experiment: Radiometric kinase panel selectivity assay; type: biochemical; design: dose or concentration left out as unconfirmed
c-Kit = c-Kit (Homo sapiens, UniProt P10721); experiment: Radiometric kinase panel selectivity assay; type: biochemical; design: dose or concentration left out as unconfirmed
Chain of c-Kit (P10721 26-976): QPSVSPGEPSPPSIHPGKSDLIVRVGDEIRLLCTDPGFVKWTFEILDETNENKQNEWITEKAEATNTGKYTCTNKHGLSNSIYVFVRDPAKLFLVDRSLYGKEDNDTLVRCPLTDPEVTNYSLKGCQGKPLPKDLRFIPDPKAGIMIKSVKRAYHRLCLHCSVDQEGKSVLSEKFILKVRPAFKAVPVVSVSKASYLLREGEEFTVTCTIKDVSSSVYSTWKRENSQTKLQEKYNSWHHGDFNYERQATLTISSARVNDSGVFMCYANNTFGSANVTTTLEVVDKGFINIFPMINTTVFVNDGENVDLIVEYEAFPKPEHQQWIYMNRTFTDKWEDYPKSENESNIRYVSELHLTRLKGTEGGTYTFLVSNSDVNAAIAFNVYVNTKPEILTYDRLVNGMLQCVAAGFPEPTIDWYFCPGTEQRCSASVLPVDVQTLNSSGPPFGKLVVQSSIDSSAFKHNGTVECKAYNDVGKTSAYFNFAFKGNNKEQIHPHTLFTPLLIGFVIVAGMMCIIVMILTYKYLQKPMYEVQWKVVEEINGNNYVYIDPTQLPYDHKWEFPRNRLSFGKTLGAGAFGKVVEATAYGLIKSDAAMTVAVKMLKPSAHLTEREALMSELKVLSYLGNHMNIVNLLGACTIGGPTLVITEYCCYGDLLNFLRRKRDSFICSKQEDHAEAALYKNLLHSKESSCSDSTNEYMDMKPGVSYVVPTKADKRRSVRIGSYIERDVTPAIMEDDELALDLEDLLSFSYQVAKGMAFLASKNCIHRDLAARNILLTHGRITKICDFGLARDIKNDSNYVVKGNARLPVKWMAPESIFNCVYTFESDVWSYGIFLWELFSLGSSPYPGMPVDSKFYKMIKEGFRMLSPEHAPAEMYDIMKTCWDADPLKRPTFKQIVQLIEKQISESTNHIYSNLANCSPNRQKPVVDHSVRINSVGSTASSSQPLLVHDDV

EGFR = EGFR (Homo sapiens, UniProt P00533); experiment: Radiometric kinase panel selectivity assay; type: biochemical; design: dose or concentration left out as unconfirmed
Chain of EGFR (P00533 25-1210, species assumed): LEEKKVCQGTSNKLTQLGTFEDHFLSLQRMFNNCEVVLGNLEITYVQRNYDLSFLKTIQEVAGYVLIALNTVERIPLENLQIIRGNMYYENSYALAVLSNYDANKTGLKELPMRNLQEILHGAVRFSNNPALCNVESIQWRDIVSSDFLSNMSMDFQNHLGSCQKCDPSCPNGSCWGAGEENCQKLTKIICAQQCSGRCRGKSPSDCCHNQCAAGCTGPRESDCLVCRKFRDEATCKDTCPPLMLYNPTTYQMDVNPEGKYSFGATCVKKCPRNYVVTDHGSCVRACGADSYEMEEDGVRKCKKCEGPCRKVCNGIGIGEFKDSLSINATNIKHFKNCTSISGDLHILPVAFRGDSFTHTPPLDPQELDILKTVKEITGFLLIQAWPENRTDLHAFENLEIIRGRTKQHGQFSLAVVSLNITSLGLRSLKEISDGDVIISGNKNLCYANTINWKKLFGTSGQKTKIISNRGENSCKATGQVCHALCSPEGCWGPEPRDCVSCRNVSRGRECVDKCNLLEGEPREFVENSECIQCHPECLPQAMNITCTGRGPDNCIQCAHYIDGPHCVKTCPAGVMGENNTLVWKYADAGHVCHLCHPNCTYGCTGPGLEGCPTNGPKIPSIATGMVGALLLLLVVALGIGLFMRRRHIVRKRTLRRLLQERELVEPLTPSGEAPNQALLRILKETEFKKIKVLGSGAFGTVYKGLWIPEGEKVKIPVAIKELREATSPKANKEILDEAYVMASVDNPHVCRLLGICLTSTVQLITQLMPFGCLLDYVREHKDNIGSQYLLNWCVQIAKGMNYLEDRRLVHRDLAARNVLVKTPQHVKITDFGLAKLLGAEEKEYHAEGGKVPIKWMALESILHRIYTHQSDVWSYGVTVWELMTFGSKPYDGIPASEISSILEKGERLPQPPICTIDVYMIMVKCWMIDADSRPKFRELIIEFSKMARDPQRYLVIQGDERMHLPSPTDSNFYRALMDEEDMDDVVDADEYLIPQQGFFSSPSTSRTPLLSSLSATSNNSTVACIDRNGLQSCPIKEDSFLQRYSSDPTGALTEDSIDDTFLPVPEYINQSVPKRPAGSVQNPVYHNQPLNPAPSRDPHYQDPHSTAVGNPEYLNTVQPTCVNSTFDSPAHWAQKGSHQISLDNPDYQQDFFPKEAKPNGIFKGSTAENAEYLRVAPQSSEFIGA

Jak2 = Jak2 (Homo sapiens, UniProt O60674); experiment: Radiometric kinase panel selectivity assay; type: biochemical; design: dose or concentration left out as unconfirmed
Chain of Jak2 (O60674 whole entry, species assumed): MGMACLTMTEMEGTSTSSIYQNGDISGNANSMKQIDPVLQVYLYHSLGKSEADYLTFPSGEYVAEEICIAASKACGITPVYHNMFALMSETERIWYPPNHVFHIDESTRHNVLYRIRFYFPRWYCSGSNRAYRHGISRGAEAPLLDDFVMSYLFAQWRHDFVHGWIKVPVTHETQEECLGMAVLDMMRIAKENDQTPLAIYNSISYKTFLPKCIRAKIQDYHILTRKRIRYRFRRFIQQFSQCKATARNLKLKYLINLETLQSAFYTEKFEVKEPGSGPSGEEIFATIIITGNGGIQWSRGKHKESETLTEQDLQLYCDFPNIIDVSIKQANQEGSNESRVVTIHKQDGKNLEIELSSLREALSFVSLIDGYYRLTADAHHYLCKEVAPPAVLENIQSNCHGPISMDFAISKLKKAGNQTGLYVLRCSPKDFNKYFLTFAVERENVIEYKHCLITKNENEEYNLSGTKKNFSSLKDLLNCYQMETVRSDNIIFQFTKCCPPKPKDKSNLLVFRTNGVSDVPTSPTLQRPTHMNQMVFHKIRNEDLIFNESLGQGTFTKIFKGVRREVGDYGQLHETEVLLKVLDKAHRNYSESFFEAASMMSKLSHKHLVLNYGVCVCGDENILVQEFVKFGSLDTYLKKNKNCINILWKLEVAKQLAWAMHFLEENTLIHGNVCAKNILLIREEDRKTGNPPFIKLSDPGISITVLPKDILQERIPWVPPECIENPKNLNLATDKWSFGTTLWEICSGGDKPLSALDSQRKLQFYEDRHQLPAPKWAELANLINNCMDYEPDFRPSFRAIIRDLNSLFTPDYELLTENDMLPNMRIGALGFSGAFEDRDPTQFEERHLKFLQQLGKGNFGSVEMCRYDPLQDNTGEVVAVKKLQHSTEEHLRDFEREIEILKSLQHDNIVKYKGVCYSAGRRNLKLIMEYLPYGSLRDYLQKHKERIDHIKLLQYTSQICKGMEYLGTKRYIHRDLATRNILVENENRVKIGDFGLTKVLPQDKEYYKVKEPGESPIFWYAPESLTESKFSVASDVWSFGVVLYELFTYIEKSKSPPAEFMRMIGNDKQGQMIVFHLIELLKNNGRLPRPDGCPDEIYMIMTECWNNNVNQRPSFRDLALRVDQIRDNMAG

Structure (SMILES) | IC50 (Pim-1 kinase) | IC50 (K562 Cells; K562, Table IX (results)) | EC50 [1] | IC50 (K562 Cells; Table IX (results)) | IC50 (PC-3 Cells) | activity against Aurora-A (Aurora-A) | activity against CDK1 (CDK1) | activity against CDK2 (CDK2) | activity against Plk3 (Plk3) | activity against Nek2 (Nek2) | activity against Able (Able) | activity against c-Kit (c-Kit) | activity against EGFR (EGFR) | activity against Jak2 (Jak2)
CC[C@H](N)COc1ccc2ncc(-c3cccc(OC(F)(F)F)c3)n2n1 [Compound 7-19, (S)-1-(3-(3-(trifluoromethoxy)phenyl)imidazo[1,2-b]pyridazin-6-yloxy)butan-2-amine] | 293 nM | 5840 nM | 635 nM |  |  |  |  |  |  |  |  |  |  | 
CN1CCC(CNc2ccc3ncc(-c4cccc(OC(F)(F)F)c4)n3n2)CC1 [Compound 7-29] |  |  | 7.9 nM | 2290 nM | 4830 nM | no significant activity | no significant activity | no significant activity | no significant activity | no significant activity | no significant activity | no significant activity | no significant activity | no significant activity
